Test [1] concerns ACAN expression in human osteoarthritic chondrocytes. The experiment in a line: ACAN relative expression in human osteoarthritic chondrocytes (passage 5) cultured 27 days. Format: cell-based. The following applies: 50 micromolar Dec, 0.1 μM Dxp, 100 mM Lac. An excerpt:
Delta-delta relative gene expression was employed to determine ACAN regulation in the 27-day samples referenced in Examples 15 and 16. A 3.81±0.77-fold increase in ACAN expression in the cells after 27 days of Lac treatment was observed. […] Without being bound by theory, it is hypothesized that these findings indicate that metabolic management and/or metabolite feedback loops represent promising therapy targets for osteoarthritis. Results associated with Example 17 are depicted in FIG. 53.

The subject of test [2] is Col2a1 expression in low passage osteoarthritic chondrocytes. In words: Col2a1 relative expression in low passage osteoarthritic chondrocytes. Format: cell-based, human. The following applies: day 28.
Test [3] relates to PGE2 release from passage 3 normal human chondrocytes. In words: Rescue versus preincubation regimens, IL-1β-induced PGE2 release from passage 3 normal human chondrocytes. Format: cell-based. Particulars: 25 μM Dec, 28 mM Lac, 10 μM LA, singlet. The text has this:
The mechanisms of action (MOA) of a drug often dictate the timing and delivery of treatment regimens. While the MOA of compounds disclosed herein continue to be elucidated, experiments were designed to help establish how the drugs should be administered. Furthermore, these experiments will also help with hypothesis generation for subsequent MOA investigations. A low-passage chondrocyte monolayer model was utilized to establish how changes in drug delivery impact the inhibition of IL-1β-induced PGE2 release seen following treatment with the compounds under investigation.
Passage 3 normal human chondrocytes were seeded into tissue culture plates and then tested for compound activity by pre-treating for 24 hours, administering at the same time as activation, or by adding to cells following an overnight activation with IL-1β. Treatment groups included medium control, 25 μM decanoate (Dec), 28 mM D/L sodium Lac, and 10 μM LA. PGE2 release was then evaluated 24- or 96-hours post-activation with percent inhibitions calculated versus plate- and block-matched controls. The experiments were performed in singlet and are intended to be repeated to establish variance.

Test [4] deals with Col1a1 expression in human osteoarthritic chondrocytes. In words: Col1a1 relative expression in human osteoarthritic chondrocytes (passage 5) cultured 27 days. Format: cell-based. Particulars: 50 micromolar Dec, 0.1 μM Dxp, 100 mM Lac. How it is done:
To evaluate the biological ramifications of the SOX9 to RUNX2 regulation mentioned above, delta-delta relative gene expression was assessed against medium controls, with normalization to GAPDH for both Col2a1 and Col1a1 in the samples tested with reference to Example 15. […] Moreover, treatment with 100 mM Lac increased collagen expression (49.88±4.31 and 1.63±0.20 for Col2a1 and Col1a1, respectively; FIGS. 51 and 52).

As for `CC(O)C(=O)O` (centres unmarked) [Lac, lactate], the “ACAN delta-delta relative gene expression” value in test [1] is 3.81±0.77 fold. In test [2], the “relative expression of Col2a1” value is “elevated Col2a1 relative expression”. Also, the “inhibition of PGE2 release” value in test [3] (rescue (added after overnight IL-1β activation), 24-hour harvest) is reported as 64%; in test [3] (rescue, 96-hour harvest), 27%. In addition, the “Col1a1 delta-delta relative gene expression” value in test [4] is 1.63±0.20 fold.

These data come from patent publication US20250288599A1, “PHARMACEUTICAL COMPOSITIONS AND METHODS FOR TREATING OSTEOARTHRITIS” (INSIGNIA PHARMACEUTICALS, LLC, priority 2024, published 2025).
